Assay results from ChEMBL document CHEMBL3881530, “Compounds and methods for inhibiting NHE-mediated antiport in the treatment of disorders associated with fluid retention or salt overload and gastrointestinal tract disorders” (2013).
Blank lines part the entries; values can stand above or below the molecule they belong to. The source made the active and inactive calls. No cut-off for these calls is given here.

What was measured:
[1] = Apparent permeability of the compound from apical to basolateral side at pH 7.4 after 3 hrs by PAMPA; type: ADME
[2] = Cmax in Sprague-Dawley rat at 1.6 mg/kg administered via oral gavage measured up to 4 hrs by LC/MS/MS analysis; type: ADME, organism-based; set-up: dose 1.6 mg/kg, route oral; settings: in vivo
[3] = AUC in Sprague-Dawley rat at 1.6 mg/kg administered via oral gavage measured up to 4 hrs by LC/MS/MS analysis; type: ADME, organism-based; set-up: time < 4 hr, dose 1.6 mg/kg, route oral; settings: in vivo
[4] = Cmax in Sprague-Dawley rat at 1.5 mg/kg administered via oral gavage measured up to 4 hrs by LC/MS/MS analysis; type: ADME, organism-based; set-up: dose 1.5 mg/kg, route oral; settings: in vivo
[5] = AUC in Sprague-Dawley rat at 1.5 mg/kg administered via oral gavage measured up to 4 hrs by LC/MS/MS analysis; type: ADME, organism-based; set-up: time < 4 hr, dose 1.5 mg/kg, route oral; settings: in vivo
[6] = target: Sodium/hydrogen exchanger 3 (Rattus norvegicus, UniProt P26433); experiment: Inhibition of rat NHE-3
[7] = system: Rattus norvegicus; experiment: Reduction in fecal stool form in 1% psyllium diet fed Sprague-Dawley rat at 3 mg/kg administered via oral gavage measured after 16 hrs; type: functional, organism-based
[8] = system: Rattus norvegicus; experiment: Increase in fecal water content in 1% psyllium diet fed Sprague-Dawley rat at 3 mg/kg administered via oral gavage measured after 16 hrs; type: functional, organism-based
[9] = system: Rattus norvegicus; experiment: Decrease in urinary sodium level in 1% psyllium diet fed Sprague-Dawley rat at 3 mg/kg administered via oral gavage measured after 16 hrs by ion chromatographic analysis; type: functional, organism-based
[10] = system: Rattus norvegicus; experiment: Antinociceptive activity in Wistar rat assessed as inhibition of partial restraint stress-induced visceral hyperalgesia at 10 mg/kg, po administered 1 hr prior to 45 to 60 mm Hg colorectal distension pressure by measuring number of abdominal contractions monitoring every 5 mins during rectal distension; type: functional, organism-based; settings: Abdominal cavity
[11] = system: Rattus norvegicus; experiment: Increase in fecal sodium level in Sprague-Dawley rat at 3 mg/kg administered via oral gavage measured after 16 hrs by ion chromatographic analysis; type: functional, organism-based
[12] = Cmax in Sprague-Dawley rat at 4.6 mg/kg administered via oral gavage measured up to 4 hrs by LC/MS/MS analysis; type: ADME, organism-based; set-up: dose 4.6 mg/kg, route oral; settings: in vivo
[13] = AUC in Sprague-Dawley rat at 4.6 mg/kg administered via oral gavage measured up to 4 hrs by LC/MS/MS analysis; type: ADME, organism-based; set-up: time < 4 hr, dose 4.6 mg/kg, route oral; settings: in vivo
[14] = Cmax in Sprague-Dawley rat at 2.4 mg/kg administered via oral gavage measured up to 4 hrs by LC/MS/MS analysis; type: ADME, organism-based; set-up: dose 2.4 mg/kg, route oral; settings: in vivo
[15] = target: Sodium/hydrogen exchanger 1 (Homo sapiens, UniProt P19634); experiment: Inhibition of NHE-1 (unknown origin)
[16] = target: T1, Sodium/hydrogen exchanger 2 (Oryctolagus cuniculus, UniProt P50482); experiment: Inhibition of rabbit NHE-2
T1 sequence (P50482 whole entry): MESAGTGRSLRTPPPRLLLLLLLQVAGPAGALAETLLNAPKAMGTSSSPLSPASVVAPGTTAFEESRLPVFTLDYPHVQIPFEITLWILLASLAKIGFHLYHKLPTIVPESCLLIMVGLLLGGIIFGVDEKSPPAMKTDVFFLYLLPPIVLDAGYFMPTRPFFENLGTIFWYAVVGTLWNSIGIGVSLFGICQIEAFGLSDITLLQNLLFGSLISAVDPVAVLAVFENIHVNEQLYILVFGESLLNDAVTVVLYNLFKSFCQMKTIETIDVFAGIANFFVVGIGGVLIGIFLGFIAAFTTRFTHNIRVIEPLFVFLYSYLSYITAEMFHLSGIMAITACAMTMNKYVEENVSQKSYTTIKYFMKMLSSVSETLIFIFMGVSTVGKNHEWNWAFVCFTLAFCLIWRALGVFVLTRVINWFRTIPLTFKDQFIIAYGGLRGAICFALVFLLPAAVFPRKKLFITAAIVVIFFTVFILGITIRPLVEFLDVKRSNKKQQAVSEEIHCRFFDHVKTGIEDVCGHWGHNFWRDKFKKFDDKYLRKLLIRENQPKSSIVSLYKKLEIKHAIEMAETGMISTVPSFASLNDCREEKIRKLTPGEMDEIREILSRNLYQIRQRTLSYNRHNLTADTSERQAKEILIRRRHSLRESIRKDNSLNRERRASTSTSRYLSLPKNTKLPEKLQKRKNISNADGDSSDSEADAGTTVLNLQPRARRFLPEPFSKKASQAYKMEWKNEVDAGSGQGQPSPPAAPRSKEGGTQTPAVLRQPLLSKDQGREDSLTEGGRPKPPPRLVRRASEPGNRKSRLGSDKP

[17] = target: T2, Sodium/hydrogen exchanger 3 (Homo sapiens, UniProt P48764); experiment: Inhibition of NHE-3 (unknown origin)
T2 sequence (P48764 whole entry): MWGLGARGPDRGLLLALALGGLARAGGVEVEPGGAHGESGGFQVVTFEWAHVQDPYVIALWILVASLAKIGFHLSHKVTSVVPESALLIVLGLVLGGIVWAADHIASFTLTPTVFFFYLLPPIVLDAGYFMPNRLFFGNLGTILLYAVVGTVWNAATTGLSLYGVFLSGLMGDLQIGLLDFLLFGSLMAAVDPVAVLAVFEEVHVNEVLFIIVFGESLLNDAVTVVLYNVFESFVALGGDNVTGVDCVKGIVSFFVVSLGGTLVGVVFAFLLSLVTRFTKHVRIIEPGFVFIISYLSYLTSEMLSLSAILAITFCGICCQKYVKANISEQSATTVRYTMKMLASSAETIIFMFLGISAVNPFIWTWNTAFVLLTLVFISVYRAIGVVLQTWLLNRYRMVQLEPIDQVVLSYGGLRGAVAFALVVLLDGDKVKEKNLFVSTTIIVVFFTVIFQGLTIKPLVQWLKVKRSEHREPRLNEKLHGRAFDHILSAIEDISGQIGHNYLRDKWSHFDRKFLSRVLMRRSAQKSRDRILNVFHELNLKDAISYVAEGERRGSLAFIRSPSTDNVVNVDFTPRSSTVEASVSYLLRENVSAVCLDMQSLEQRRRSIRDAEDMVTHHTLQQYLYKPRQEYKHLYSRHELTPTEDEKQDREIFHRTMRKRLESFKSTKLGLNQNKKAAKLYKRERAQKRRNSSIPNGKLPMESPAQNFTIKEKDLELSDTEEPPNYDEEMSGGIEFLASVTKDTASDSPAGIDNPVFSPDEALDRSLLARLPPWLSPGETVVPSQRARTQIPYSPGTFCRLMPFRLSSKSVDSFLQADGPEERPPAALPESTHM

[18] = Cmax in Sprague-Dawley rat at 1.3 mg/kg administered via oral gavage measured up to 4 hrs by LC/MS/MS analysis; type: ADME, organism-based; set-up: dose 1.3 mg/kg, route oral; settings: in vivo
[19] = AUC in Sprague-Dawley rat at 1.3 mg/kg administered via oral gavage measured up to 4 hrs by LC/MS/MS analysis; type: ADME, organism-based; set-up: dose 1.3 mg/kg, time < 4 hr, route oral; settings: in vivo
[20] = Cmax in Sprague-Dawley rat at 21 mg/kg administered via oral gavage measured up to 4 hrs by LC/MS/MS analysis; type: ADME, organism-based; set-up: dose 21 mg/kg, route oral; settings: in vivo
[21] = AUC in Sprague-Dawley rat at 21 mg/kg administered via oral gavage measured up to 4 hrs by LC/MS/MS analysis; type: ADME, organism-based; set-up: dose 21 mg/kg, time < 4 hr, route oral; settings: in vivo
[22] = Cmax in Sprague-Dawley rat at 27 mg/kg administered via oral gavage measured up to 4 hrs by LC/MS/MS analysis; type: ADME, organism-based; set-up: dose 27 mg/kg, route oral; settings: in vivo
[23] = AUC in Sprague-Dawley rat at 27 mg/kg administered via oral gavage measured up to 4 hrs by LC/MS/MS analysis; type: ADME, organism-based; set-up: time < 4 hr, dose 27 mg/kg, route oral; settings: in vivo

Chain of Sodium/hydrogen exchanger 1 (P19634 whole entry): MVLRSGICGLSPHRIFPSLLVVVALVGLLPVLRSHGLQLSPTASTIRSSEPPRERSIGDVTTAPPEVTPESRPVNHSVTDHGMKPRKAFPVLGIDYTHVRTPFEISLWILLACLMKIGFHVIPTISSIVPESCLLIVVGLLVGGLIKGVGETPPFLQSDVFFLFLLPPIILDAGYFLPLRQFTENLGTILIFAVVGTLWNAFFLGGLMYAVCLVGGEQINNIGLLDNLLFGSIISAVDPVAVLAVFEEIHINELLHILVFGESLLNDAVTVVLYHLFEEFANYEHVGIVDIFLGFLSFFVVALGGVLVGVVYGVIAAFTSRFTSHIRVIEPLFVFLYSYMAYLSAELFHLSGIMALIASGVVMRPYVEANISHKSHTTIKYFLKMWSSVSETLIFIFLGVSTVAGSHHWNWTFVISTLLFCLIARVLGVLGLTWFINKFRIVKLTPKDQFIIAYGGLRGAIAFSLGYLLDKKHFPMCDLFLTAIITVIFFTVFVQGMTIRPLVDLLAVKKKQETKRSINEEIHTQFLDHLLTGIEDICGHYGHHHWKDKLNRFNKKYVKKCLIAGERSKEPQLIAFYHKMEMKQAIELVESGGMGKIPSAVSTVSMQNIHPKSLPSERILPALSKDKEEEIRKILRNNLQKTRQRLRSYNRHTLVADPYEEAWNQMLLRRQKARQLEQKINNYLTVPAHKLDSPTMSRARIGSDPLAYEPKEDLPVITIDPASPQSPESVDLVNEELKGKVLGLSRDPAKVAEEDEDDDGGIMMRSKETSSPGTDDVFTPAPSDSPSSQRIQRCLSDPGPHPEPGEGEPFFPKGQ
Chain of Sodium/hydrogen exchanger 3 (Rattus norvegicus, UniProt P26433) (P26433 whole entry): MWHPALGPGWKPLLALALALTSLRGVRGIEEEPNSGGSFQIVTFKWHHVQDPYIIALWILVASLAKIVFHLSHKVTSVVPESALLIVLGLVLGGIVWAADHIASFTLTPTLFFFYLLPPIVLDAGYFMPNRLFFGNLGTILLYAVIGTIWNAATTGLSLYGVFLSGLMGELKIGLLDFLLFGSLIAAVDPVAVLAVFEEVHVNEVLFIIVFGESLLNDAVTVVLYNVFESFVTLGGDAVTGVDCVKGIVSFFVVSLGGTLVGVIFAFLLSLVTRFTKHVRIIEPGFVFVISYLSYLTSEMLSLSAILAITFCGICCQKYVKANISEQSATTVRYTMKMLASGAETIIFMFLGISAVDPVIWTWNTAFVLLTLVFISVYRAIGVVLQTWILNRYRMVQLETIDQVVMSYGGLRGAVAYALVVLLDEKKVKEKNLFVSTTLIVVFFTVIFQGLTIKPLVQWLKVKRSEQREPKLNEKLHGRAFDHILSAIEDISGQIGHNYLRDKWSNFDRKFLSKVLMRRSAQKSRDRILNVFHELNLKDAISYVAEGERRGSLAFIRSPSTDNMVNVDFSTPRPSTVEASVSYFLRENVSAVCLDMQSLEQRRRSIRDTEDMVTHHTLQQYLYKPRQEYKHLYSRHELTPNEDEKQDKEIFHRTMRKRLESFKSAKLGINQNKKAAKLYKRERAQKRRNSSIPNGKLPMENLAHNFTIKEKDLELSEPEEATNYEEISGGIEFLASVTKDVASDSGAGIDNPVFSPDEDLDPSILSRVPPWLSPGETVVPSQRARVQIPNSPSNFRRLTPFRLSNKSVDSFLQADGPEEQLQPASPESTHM

SMILES: CN1Cc2c(Cl)cc(Cl)cc2C(c2cccc(S(=O)(=O)NCCN(CCNS(=O)(=O)c3cccc(C4CN(C)Cc5c(Cl)cc(Cl)cc54)c3)CCNS(=O)(=O)c3cccc(C4CN(C)Cc5c(Cl)cc(Cl)cc54)c3)c2)C1 (stereo not drawn)
Cmax [2]: 71 ng/mL
AUC at 4 h [3]: 159 ng·h/mL

SMILES: CN1Cc2c(Cl)cc(Cl)cc2C(c2cccc(S(=O)(=O)NCCOCCOCCOCCNC(=O)C(O)C(O)C(=O)NCCOCCOCCOCCNS(=O)(=O)c3cccc(C4CN(C)Cc5c(Cl)cc(Cl)cc54)c3)c2)C1 (single isomer, unassigned)
Activity [7]: Active
Activity [8]: Active
Activity [9]: Active
inhibition [10]: Active
Activity [11]: Active

SMILES: CN1Cc2c(Cl)cc(Cl)cc2C(c2cccc(NS(=O)(=O)NCCP(=O)(O)O)c2)C1 (stereo not drawn)
Cmax [18]: 11 ng/mL
AUC at 4 h [19]: 56 ng·h/mL

SMILES: CN1Cc2c(Cl)cc(Cl)cc2C(c2cccc(S(=O)(=O)NCCOCCOCCOCCNC(=O)Nc3ccc(NC(=O)NCCOCCOCCOCCNS(=O)(=O)c4cccc([C@@H]5CN(C)Cc6c(Cl)cc(Cl)cc65)c4)cc3)c2)C1 (mixture of isomers)
Cmax [20]: < 2 ng/mL
AUC at 4 h [21]: < 2 ng·h/mL

SMILES: CN1Cc2c(Cl)cc(Cl)cc2[C@H](c2ccc(S(=O)(=O)NCCOCCOCCOCCNC(=O)C(O)C(O)C(=O)NCCOCCOCCOCCNS(=O)(=O)c3ccc([C@@H]4CN(C)Cc5c(Cl)cc(Cl)cc54)cc3)cc2)C1 (single isomer, unassigned)
Cmax [22]: < 3.5 ng/mL
AUC at 4 h [23]: < 5.3 ng·h/mL

More lines, now with the values ahead:

Papp at 3 h [1]: 0.4 ×10⁻⁶ cm/s
SMILES: NC(N)=Nc1nc(-c2cccc(N3CCN(CCCC(=O)O)CC3)c2)c2cc(Cl)ccc2n1.O=C(O)C(F)(F)F

Cmax [4]: < 2.7 ng/mL
AUC at 4 h [5]: < 4.4 ng·h/mL
SMILES: C/C(=C\c1cc(F)c(Oc2ccc(S(=O)(=O)NCCOCCOCCOCCNC(=O)[C@H](O)[C@@H](O)C(=O)NCCOCCOCCOCCNS(=O)(=O)c3ccc(Oc4c(F)cc(/C=C(\C)C(=O)N=C(N)N)cc4F)cc3)cc2)c(F)c1)C(=O)N=C(N)N

IC50 [6]: > 500 µM
SMILES: N=C(N)NC(=O)c1cnn(-c2cccc3ncccc23)c1C1CC1 [ZONIPORIDE]

Cmax [12]: 14 ng/mL
AUC at 4 h [13]: 9 ng·h/mL
SMILES: C/C(=C\c1cc(F)c(Oc2ccc(S(=O)(=O)NCc3ccc(CP(=O)(O)O)cc3)cc2)c(F)c1)C(=O)N=C(N)N

Cmax [14]: 2 ng/mL
SMILES: N=C(N)N1CCN(c2cccc(-c3nc(N=C(N)N)nc4ccc(Cl)cc34)c2)CC1

IC50 [15]: 3.6 µM
IC50 [16]: 80 µM
IC50 [17]: 0.02 µM
SMILES: C/C(=C\c1cc(C)ccc1/C=C(\C)C(=O)NC(=N)N)C(=O)N=C(N)N
